Assays:
[1] = test system: pentylenetetrazole (PTZ)-induced seizure in female C57BI/6 mice; assay: Pentylenetetrazole (PTZ)-induced seizure procedure; type: in vivo, mouse (female C57BI/6); conditions: 50 mg/kg i.p., 30 min before 75 mg/kg i.p. PTZ; for PTZ Anticonvulsive Results: Surv (survival at one hour postPTZ): one hour post PTZ
Method: (§1) The compounds of Formula I are anticonvulsant agents. Their anticonvulsant properties were determined by pharmacologic testing, utilizing two standard animal models of epilepsy: the pentylenetetrazole (PTZ)-induced seizure procedure and the maximal electroshock test (MES). General descriptions of such testing can be found in J. F. Reinhard and J. F. Reinhard, Jr., "Experimental Evaluation of Anticonvulsants," in Anticonvulsants, J. A. Vida, Ed., Academic Press, New York, N.Y., 1977.
The Pentylenetetrazole (PZT)-Induced Seizure Procedure
In the PTZ procedure female C57BI/6 mice (17-26 g) were injected i.p. (vol=0.1 mL/20 g) with test compound or vehicle 30 min. before i.p. administration of 75 mg/kg pentylenetetrazol. Multiple doses of reference compounds (ethosuximide, trimethadione, and pentobarbital) were tested at the time of peak activity and at the dose range reported in the literature. Ten mice were used per group. After injection, mice were placed in individual observation cages and monitored for one hour. During the first 30 minutes following PTZ injection, seizure activity was recorded by measuring: the latency to the onset of pre-convulsive activity, the latency to the onset of the first clonic seizure longer than five seconds, the latency to the onset of the first intense-generalized clonic/tonic seizure, and the length of survival. During the second 30 min. period, only time of death was recorded. Those compounds that produced a significant delay in the onset of seizure activity or delayed (or abolished) mortality when compared to that produced by vehicle were classified as anticonvulsants. Significant difference between animals treated with vehicle or test compound were determined using the Student's t-test.

[2] = test system: tonic seizure (maximum electroshock) in female C57BI/6 mice; assay: Maximum Electroshock (MES) procedure; type: in vivo, mouse (female C57BI/6); conditions: Mus musculus, ip, 0.5 h, i.p. 30 min before MES, abolition of hindlimb tonic extension, read-out: MES Results: median effective dose (ED50)
Method: as §1
The Maximum Electroshock (MES) Procedure
In the MES procedure a tonic seizure was produced in female C57BI/6 mice (17-26 g) by the delivery of a 50 milliamps current through corneal electrodes for 0.2 sec. Before testing, animals were allowed food and water ad libitum. Compounds were injected i.p. (vol=0.1 mL/20 g) 30 min. before the MES. Reference compounds (phenytoin, carbamazepine, phenobarbital, and valproic acid) were tested at the time of peak activity and at the dose range reported in the literature. Seven mice were used per group. In this test anticonvulsive activity was indicated by the abolition of the hindlimb tonic extension. The median effective dose (ED50) was obtained for each compound.

Row | Compound | PTZ Anticonvulsive Results: First (latency to first seizure) [1] | PTZ Anticonvulsive Results: Pre (latency to first twitch) [1] | PTZ Anticonvulsive Results: Surv Time (duration of survival) [1] | PTZ Anticonvulsive Results: Surv (survival at one hour postPTZ) [1] | ED50 [2] | PTZ Anticonvulsive Results: IGS (onset of intense, generalized seizures) [1]
1 | COc1cc(N)c(Cl)cc1C(=O)NCc1ccccn1 [Example 2, 4-Amino-5-chloro-2-methoxy-N-(2-pyridinylmethyl)benzamide] | ++++ (++++ = > 400% of controls) | ++ (++ = > 200% of controls) | +++ (+++ = > 300% of controls) | ++++ (++++ = > 400% of controls) |  | 
2 | COc1cc(N)c(Cl)cc1C(=O)NCc1ccncc1 [Example 3, 4-Amino-5-chloro-2-methoxy-N-(4-pyridinylmethyl)benzamide] | ++++ (++++ = > 400% of controls) | ++ (++ = > 200% of controls) | ++++ (++++ = > 400% of controls) | ++++ (++++ = > 400% of controls) | < 10 mg/kg | +++ (+++ = > 300% of controls)
3 | COc1cc(N)c(Cl)cc1C(=O)NCc1cccnc1 [Example 1, 4-Amino-5-chloro-2-methoxy-N-(3-pyridinylmethyl)benzamide] | ++++ (++++ = > 400% of controls) | ++ (++ = > 200% of controls) | ++++ (++++ = > 400% of controls) | ++++ (++++ = > 400% of controls) | < 75 mg/kg | +++ (+++ = > 300% of controls)
